Two compounds from patent US20070053985A1, “Coenzyme Q10-containing fine particle with excellent dispersibility” (KANEKA CORPORATION, priority 2005, published 2007) can be followed below.

Data set [1] can be described thus: Dispersibility in water, mixture stirred violently. The data set is classed as physicochemical. To be noted: 5 mg added into 100 mL of water, stirring violently. How it is done:
Oxidized coenzyme Q10 crystals (5 mg) or reduced coenzyme Q10 crystals (5 mg) as obtained in the Production Example 1 was added into 100 mL of water, and each mixture was then stirring violently. In the both mixtures, one part of fine particles adhered to the wall of vessel, and another part thereof formed lumps of particles floated on the water surface.

The nature of data set [2]: Adhesion of particles to the wall of a glass sample bottle on shaking. Type of data set: physicochemical. To be noted: 500 mg in a 10-mL glass sample bottle, shaken. As to the method: Fine particles as obtained in Example 4 (500 mg) was placed in a 10-mL glass sample bottle, and then shaken.
Reduced coenzyme Q10 crystals as obtained in Production Example 1 (500 mg) was placed in a 10-mL glass sample bottle, and then shaken in the same manner as Example 8.

`COC1=C(OC)C(=O)C(C/C=C(\C)CC/C=C(\C)CC/C=C(\C)CC/C=C(\C)CC/C=C(\C)CC/C=C(\C)CC/C=C(\C)CC/C=C(\C)CC/C=C(\C)CCC=C(C)C)=C(C)C1=O` [Oxidized coenzyme Q10 crystals, Oxidized coenzyme Q10]: the dispersibility in water result in data set [1] is “the particles were not dispersed easily”.

As to `COc1c(O)c(C)c(C/C=C(\C)CC/C=C(\C)CC/C=C(\C)CC/C=C(\C)CC/C=C(\C)CC/C=C(\C)CC/C=C(\C)CC/C=C(\C)CC/C=C(\C)CCC=C(C)C)c(O)c1OC` [reduced coenzyme Q10 crystals, reduced coenzyme Q10], in data set [1], the dispersibility in water result is “the particles were not dispersed easily”. For the same compound, in data set [2], the “adhesion to the wall of bottle” value is given as “most of the crystals were adhered to the wall”.
